From US20050202511A1, “AMP-activated protein kinase (AMPK) inhibitor screening assay” (priority 2002, published 2005)

How the values were obtained:
[1] = biological target: recombinant á1â1γ2 heterotrimer (Lins) (Homo sapiens, UniProt Q9UGJ0, INS350L); assay: AMPK heterotrimer kinase assay, activation by AMP; format: biochemical; details: immunoprecipitated from CCL13 cells, slow lysis; read-out: A0.5
From the text: (§1) Plasmids expressing myc-tagged á1, â1 and γ1, γ2 (with or without WPWS mutations) or γ3 were expressed in CCL13 cells and the recombinant complexes immunoprecipitated using anti-myc antibodies.
(§2) For this reason, the estimates of A0.5 for the H383R and T400N mutants are somewhat less accurate than the others, while no value could be obtained for the R531 G mutant. […] With some mutants, the maximal activation also appeared to be affected.
(§3) PCDNA plasmids (14,25,32) encoding á1, â1 and γ1, γ2 or γ3 were expressed in CCL13 cells (25), subject to “rapid lysis”, immunoprecipitated using anti-myc antibody, and assayed as described previously (33). “Slow lysis” of CCL13 cells was as described by Stein et al (34).

[2] = biological target: T1, recombinant á1â1γ2 heterotrimer (R302Q) (Homo sapiens, UniProt Q9UGJ0, R302Q); assay: AMPK heterotrimer kinase assay, activation by AMP; format: biochemical
T1 construct: expressed in transfected cells; host or cells: CCL13 cells
T1 sequence (Q9UGJ0 whole entry R302Q): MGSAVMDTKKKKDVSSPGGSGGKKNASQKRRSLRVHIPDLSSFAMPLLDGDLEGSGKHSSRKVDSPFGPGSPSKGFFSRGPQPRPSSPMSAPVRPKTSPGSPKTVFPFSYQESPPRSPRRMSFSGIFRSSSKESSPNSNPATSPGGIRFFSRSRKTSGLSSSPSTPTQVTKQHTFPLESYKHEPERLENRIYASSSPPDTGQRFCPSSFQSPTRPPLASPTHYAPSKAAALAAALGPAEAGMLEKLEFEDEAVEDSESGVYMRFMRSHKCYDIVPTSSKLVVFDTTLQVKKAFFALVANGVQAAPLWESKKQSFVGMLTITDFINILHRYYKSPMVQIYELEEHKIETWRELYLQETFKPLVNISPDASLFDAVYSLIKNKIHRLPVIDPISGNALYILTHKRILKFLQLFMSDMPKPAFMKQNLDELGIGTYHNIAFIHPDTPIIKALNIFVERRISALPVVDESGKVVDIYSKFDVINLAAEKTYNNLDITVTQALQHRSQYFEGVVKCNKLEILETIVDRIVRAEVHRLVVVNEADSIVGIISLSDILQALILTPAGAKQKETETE
T1 sequence (P54645 whole entry partner): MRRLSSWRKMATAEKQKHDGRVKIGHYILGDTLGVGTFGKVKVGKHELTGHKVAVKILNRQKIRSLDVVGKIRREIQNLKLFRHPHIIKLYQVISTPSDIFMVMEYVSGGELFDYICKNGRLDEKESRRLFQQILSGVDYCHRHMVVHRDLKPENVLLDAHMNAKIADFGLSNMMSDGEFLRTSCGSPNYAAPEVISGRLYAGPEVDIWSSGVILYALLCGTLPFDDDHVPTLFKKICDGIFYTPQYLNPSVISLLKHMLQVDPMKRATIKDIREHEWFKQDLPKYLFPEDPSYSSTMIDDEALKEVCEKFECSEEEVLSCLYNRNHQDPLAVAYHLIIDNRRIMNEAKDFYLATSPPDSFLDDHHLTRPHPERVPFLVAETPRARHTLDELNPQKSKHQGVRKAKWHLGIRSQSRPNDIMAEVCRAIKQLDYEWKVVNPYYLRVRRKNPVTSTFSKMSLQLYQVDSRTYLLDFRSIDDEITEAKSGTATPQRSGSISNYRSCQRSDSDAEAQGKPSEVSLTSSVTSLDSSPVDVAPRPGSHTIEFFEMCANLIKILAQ
T1 sequence (P80386 whole entry partner): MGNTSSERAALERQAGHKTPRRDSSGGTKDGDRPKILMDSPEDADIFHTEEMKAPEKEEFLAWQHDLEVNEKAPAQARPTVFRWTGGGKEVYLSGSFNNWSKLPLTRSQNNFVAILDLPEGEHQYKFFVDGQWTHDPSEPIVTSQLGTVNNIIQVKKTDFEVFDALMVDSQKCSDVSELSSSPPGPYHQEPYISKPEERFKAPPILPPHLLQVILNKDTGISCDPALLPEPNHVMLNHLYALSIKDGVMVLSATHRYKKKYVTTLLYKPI
From the text: as §1, §2, §3

Sequence of recombinant á1â1γ2 heterotrimer (Lins) (Q9UGJ0 with tags, fused parts or gaps INS350L): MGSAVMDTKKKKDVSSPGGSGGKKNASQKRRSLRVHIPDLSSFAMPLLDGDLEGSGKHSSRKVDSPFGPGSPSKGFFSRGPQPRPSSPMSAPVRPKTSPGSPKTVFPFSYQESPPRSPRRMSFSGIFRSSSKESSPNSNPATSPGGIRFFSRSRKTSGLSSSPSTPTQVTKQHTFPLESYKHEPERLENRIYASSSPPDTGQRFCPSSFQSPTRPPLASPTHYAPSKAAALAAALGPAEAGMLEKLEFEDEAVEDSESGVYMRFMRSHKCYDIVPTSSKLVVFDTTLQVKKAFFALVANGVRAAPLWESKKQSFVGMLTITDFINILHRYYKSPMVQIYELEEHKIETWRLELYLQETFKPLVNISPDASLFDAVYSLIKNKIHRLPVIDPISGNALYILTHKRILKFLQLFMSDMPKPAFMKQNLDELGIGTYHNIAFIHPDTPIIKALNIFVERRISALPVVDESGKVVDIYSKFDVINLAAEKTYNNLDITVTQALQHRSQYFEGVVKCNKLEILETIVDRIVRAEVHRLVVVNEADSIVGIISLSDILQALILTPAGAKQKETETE

## Nc1ncnc2c1ncn2[C@@H]1O[C@H](COP(=O)(O)O)[C@@H](O)[C@H]1O [AMP, adenosine monophosphate]
[1]
  EC50: 9 ± 4 µM
[2]
  stimulation by AMP: 3 fold
[2]; immunoprecipitated from CCL13 cells, slow lysis, read-out: A0.5
  EC50: 23 ± 6 µM
